We go through 1 molecule from patent US20240059729A1, “MULTIFUNCTIONAL CYCLIC DINUCLEOTIDE AND USE THEREOF” (TYLIGAND BIOSCIENCE (SHANGHAI) LIMITED, priority 2020, published 2024).

The structures appear in SMILES notation. Structures can show the parent of a compound that is named as a salt.

This series in a line: Hepatocyte metabolic stability assay. Conditions: 5 species of hepatocytes (mouse, rat, dog, monkey, human); FIG. 4A. It is filed as in vitro ADME. From the text:
The compounds of the invention were similarly tested for hepatocyte metabolic stability in 5 species (mouse, rat, dog, monkey, human) according to standard methods of in vitro metabolic stability studies conventional in the art, for example (Kems, Edward H. and Di Li (2008). Drug-like Properties: Concepts, Structure Design and Methods: From ADME to Toxicity Optimization, San Diego: Academic Press; Di, Li et al, Optimization of a High Throughput Microsomal Stability Screening Assay for Profiling Drug Discovery Candidates, J Biomol Screen. 2003, 8(4), 453).
The hepatocytes used in the experiment: human hepatocytes (SHQY, Lot #HEP190006), dog hepatocytes (IVT, Lot #ZMB); monkey hepatocytes (Xenotech, Lot #2010022), rat hepatocytes (SHQY, Lot #HEP134045), and mouse hepatocytes (BioIVT, Cat. #M005052, Lot. #MEO).
Cryopreserved hepatocyte tubes were removed from a liquid nitrogen tank and immediately placed ill in a shaking water bath at 37±1° C. for 2 minutes±15 seconds. […] The supernatant was aspirated without touching the cell pellet, and cell viability and number were determined. The hepatocytes were counted and then the cell suspension was diluted in KHB buffer to the appropriate density (viable cell density=2×10^6 cells/mL). […]

Turning to `Nc1nc2c(ncn2[C@@H]2O[C@@H]3CO[P@@](=O)(S)OC4C(F)[C@H](n5cnc6c(N)nc(Cl)nc65)O[C@@H]4CO[P@@](=O)(S)OC2C3O)c(=O)[nH]1` (stereo partly drawn) [Example 10, (2′,3′)-cyclo-(Rp,Rp)-[2′-O-phosphorothioate-diester-guanosine]-[3′-O-phosphorothioate-diester-2-chloro-2′-deoxy-2′-fluoro-beta-adenosine] diammonium salt], the “Hepatocyte metabolic stability (in words)” value is recorded as “good metabolic stability”.
